Experimental data reported in article PMC12284294 (iScience, 2025).
Where two headings read alike, the source gives them in different places.

Assays:
[1] = system: human polymorphonuclear granulocytes (PMN; neutrophils); assay type: cell-based
FPR1 = target: T1, FPR1 (Homo sapiens, UniProt P21462); assay type: cell-based
T1 construct: expressed in transfected cells; host or cells: HEK293T
T1 sequence (P21462 1-350): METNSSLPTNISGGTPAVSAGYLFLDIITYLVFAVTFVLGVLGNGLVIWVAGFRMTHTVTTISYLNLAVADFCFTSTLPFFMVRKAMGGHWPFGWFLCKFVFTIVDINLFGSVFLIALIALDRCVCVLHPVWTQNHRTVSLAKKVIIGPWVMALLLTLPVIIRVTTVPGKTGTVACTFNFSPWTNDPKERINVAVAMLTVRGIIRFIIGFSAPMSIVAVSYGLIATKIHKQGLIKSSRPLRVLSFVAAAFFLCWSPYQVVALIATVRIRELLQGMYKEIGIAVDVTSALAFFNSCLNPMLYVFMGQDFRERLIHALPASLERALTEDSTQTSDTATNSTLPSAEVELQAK

[2] = SARS-CoV-2 omicron B.1.1.529 spike pool peptides, 10 µM, PMN, n=6

Row | Sequence | non-activators of FPR1 and PMNs: PMNs [1, 2] | non-activators of FPR1 and PMNs: FPR1 (FPR1) | significant FPR1 activators (group of the spike peptide pool screening) (FPR1) | significant PMN activators (group of the spike peptide pool screening) [1, 2] | non-activators of FPR1 and PMNs: PMNs [1]
1 | AGFNCYFPLKSYSFR | non-activators of FPR1 and PMNs | non-activators of FPR1 and PMNs |  |  | 
2 | AGICASYQTQTKSHR | non-activators of FPR1 and PMNs | non-activators of FPR1 and PMNs |  |  | 
3 | AISSVLNDIFSRLDK | non-activators of FPR1 and PMNs | non-activators of FPR1 and PMNs |  |  | 
4 | ALGKLQDVVNHNAQA | non-activators of FPR1 and PMNs | non-activators of FPR1 and PMNs |  |  | 
5 | APFFTFKCYGVSPTK | non-activators of FPR1 and PMNs | non-activators of FPR1 and PMNs |  |  | 
6 | AQALNTLVKQLSSKF | non-activators of FPR1 and PMNs | non-activators of FPR1 and PMNs |  |  | 
7 | AQKFKGLTVLPPLLT |  |  | significant FPR1 activators |  | 
8 | ASYQTQTKSHRRARS | non-activators of FPR1 and PMNs | non-activators of FPR1 and PMNs |  |  | 
9 | CEFQFCNDPFLDHKN | non-activators of FPR1 and PMNs | non-activators of FPR1 and PMNs |  |  | 
10 | CNGVAGFNCYFPLKS | non-activators of FPR1 and PMNs | non-activators of FPR1 and PMNs |  |  | 
11 | CPFDEVFNATRFASV | non-activators of FPR1 and PMNs | non-activators of FPR1 and PMNs |  |  | 
12 | CTQLKRALTGIAVEQ | non-activators of FPR1 and PMNs | non-activators of FPR1 and PMNs |  |  | 
13 | CVIAWNSNKLDSKVS | non-activators of FPR1 and PMNs | non-activators of FPR1 and PMNs |  |  | 
14 | CYFPLKSYSFRPTYG | non-activators of FPR1 and PMNs | non-activators of FPR1 and PMNs |  |  | 
15 | DFTGCVIAWNSNKLD | non-activators of FPR1 and PMNs | non-activators of FPR1 and PMNs |  |  | 
16 | DLFLPFFSNVTWFHV |  |  | significant FPR1 activators | significant PMN activators | 
17 | DLICAQKFKGLTVLP |  |  |  | significant PMN activators | 
18 | DYSVLYNLAPFFTFK |  |  | significant FPR1 activators | significant PMN activators | 
19 | FCNDPFLDHKNNKSW | non-activators of FPR1 and PMNs | non-activators of FPR1 and PMNs |  |  | 
20 | FERDISTEIYQAGNK | non-activators of FPR1 and PMNs | non-activators of FPR1 and PMNs |  |  | 
21 | FHVISGTNGTKRFDN | non-activators of FPR1 and PMNs | non-activators of FPR1 and PMNs |  |  | 
22 | GAEYVNNSYECDIPI | non-activators of FPR1 and PMNs | non-activators of FPR1 and PMNs |  |  | 

Row | Sequence | non-activators of FPR1 and PMNs: PMNs [1, 2] | non-activators of FPR1 and PMNs: FPR1 (FPR1) | significant FPR1 activators (group of the spike peptide pool screening) (FPR1) | significant PMN activators (group of the spike peptide pool screening) [1, 2] | non-activators of FPR1 and PMNs: PMNs [1]
23 | GDEVRQIAPGQTGNI | non-activators of FPR1 and PMNs | non-activators of FPR1 and PMNs |  |  | 
24 | GHQPYRVVVLSFELL |  |  | significant FPR1 activators | significant PMN activators | 
25 | GNIADYNYKLPDDFT | non-activators of FPR1 and PMNs | non-activators of FPR1 and PMNs |  |  | 
26 | GNKPCNGVAGFNCYF | non-activators of FPR1 and PMNs | non-activators of FPR1 and PMNs |  |  | 
27 | IAARDLICAQKFKGL |  |  |  | significant PMN activators | 
28 | IEKSNIIRGWIFGTT | non-activators of FPR1 and PMNs | non-activators of FPR1 and PMNs |  |  | 
29 | IFSRLDKVEAEVQID |  | non-activators of FPR1 and PMNs |  |  | non-activators of FPR1 and PMNs
30 | IIVREPEDLPQGFSA | non-activators of FPR1 and PMNs | non-activators of FPR1 and PMNs |  |  | 
31 | ISTEIYQAGNKPCNG | non-activators of FPR1 and PMNs | non-activators of FPR1 and PMNs |  |  | 
32 | IYKTPPIKYFGGFNF |  |  |  | significant PMN activators | 
33 | IYQAGNKPCNGVAGF | non-activators of FPR1 and PMNs | non-activators of FPR1 and PMNs |  |  | 
34 | KGLTVLPPLLTDEMI |  |  | significant FPR1 activators |  | 
35 | KHTPIIVREPEDLPQ | non-activators of FPR1 and PMNs | non-activators of FPR1 and PMNs |  |  | 
36 | KIYSKHTPIIVREPE | non-activators of FPR1 and PMNs | non-activators of FPR1 and PMNs |  |  | 
37 | KLDSKVSGNYNYLYR | non-activators of FPR1 and PMNs | non-activators of FPR1 and PMNs |  |  | 
38 | KQLSSKFGAISSVLN | non-activators of FPR1 and PMNs | non-activators of FPR1 and PMNs |  |  | 
39 | KRALTGIAVEQDKNT | non-activators of FPR1 and PMNs | non-activators of FPR1 and PMNs |  |  | 
40 | LKSYSFRPTYGVGHQ | non-activators of FPR1 and PMNs | non-activators of FPR1 and PMNs |  |  | 
41 | LLLQYGSFCTQLKRA | non-activators of FPR1 and PMNs | non-activators of FPR1 and PMNs |  |  | 
42 | LQDVVNHNAQALNTL | non-activators of FPR1 and PMNs | non-activators of FPR1 and PMNs |  |  | 
43 | LYNLAPFFTFKCYGV |  |  | significant FPR1 activators | significant PMN activators | 
44 | NCVADYSVLYNLAPF | non-activators of FPR1 and PMNs | non-activators of FPR1 and PMNs |  |  | 

Row | Sequence | non-activators of FPR1 and PMNs: PMNs [1, 2] | non-activators of FPR1 and PMNs: FPR1 (FPR1) | significant FPR1 activators (group of the spike peptide pool screening) (FPR1) | significant PMN activators (group of the spike peptide pool screening) [1, 2] | non-activators of FPR1 and PMNs: PMNs [1]
45 | NDGVYFASIEKSNII | non-activators of FPR1 and PMNs | non-activators of FPR1 and PMNs |  |  | 
46 | NGLKGTGVLTESNKK | non-activators of FPR1 and PMNs | non-activators of FPR1 and PMNs |  |  | 
47 | NKCVNFNFNGLKGTG | non-activators of FPR1 and PMNs | non-activators of FPR1 and PMNs |  |  | 
48 | NTLVKQLSSKFGAIS | non-activators of FPR1 and PMNs | non-activators of FPR1 and PMNs |  |  | 
49 | NVTWFHVISGTNGTK |  |  | significant FPR1 activators | significant PMN activators | 
50 | PFFSNVTWFHVISGT |  |  | significant FPR1 activators | significant PMN activators | 
51 | PFLDHKNNKSWMESE | non-activators of FPR1 and PMNs | non-activators of FPR1 and PMNs |  |  | 
52 | PGQTGNIADYNYKLP | non-activators of FPR1 and PMNs | non-activators of FPR1 and PMNs |  |  | 
53 | PGTNTSNQVAVLYQG | non-activators of FPR1 and PMNs | non-activators of FPR1 and PMNs |  |  | 
54 | PPIKYFGGFNFSQIL | non-activators of FPR1 and PMNs | non-activators of FPR1 and PMNs |  |  | 
55 | QTRAGCLIGAEYVNN | non-activators of FPR1 and PMNs | non-activators of FPR1 and PMNs |  |  | 
56 | RFPNITNLCPFDEVF | non-activators of FPR1 and PMNs | non-activators of FPR1 and PMNs |  |  | 
57 | RQIAPGQTGNIADYN | non-activators of FPR1 and PMNs | non-activators of FPR1 and PMNs |  |  | 
58 | SFRPTYGVGHQPYRV | non-activators of FPR1 and PMNs | non-activators of FPR1 and PMNs |  |  | 
59 | SHRRARSVASQSIIA | non-activators of FPR1 and PMNs | non-activators of FPR1 and PMNs |  |  | 
60 | SKFGAISSVLNDIFS | non-activators of FPR1 and PMNs | non-activators of FPR1 and PMNs |  |  | 
61 | STASALGKLQDVVNH | non-activators of FPR1 and PMNs | non-activators of FPR1 and PMNs |  |  | 
62 | TQTKSHRRARSVASQ | non-activators of FPR1 and PMNs | non-activators of FPR1 and PMNs |  |  | 
63 | TSNQVAVLYQGVNCT | non-activators of FPR1 and PMNs | non-activators of FPR1 and PMNs |  |  | 
64 | TYGVGHQPYRVVVLS |  |  | significant FPR1 activators | significant PMN activators | 
